{
  "source": "patent US8546373B2",
  "about": "(Biogenic Innovations, LLC, priority 2009, dated 2013)",
  "tested_on": "Streptococcus pneumonia",
  "conditions": "7 h, 5 %",
  "data": [
    {"smiles": "C[S+](C)[O-]", "note": "[DMSO, dimethyl sulfoxide]", "values": [
      {"measurement": "reduction in viability", "value": "approximately 25%"}
    ]}
  ]
}
